Measured values: PubChem BioAssay (NCI)
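Step 1: Grow cells in 96-well plates. Step 2: Expose to compound for 48 hours at 5 concentrations. Step 3: Interpolate endpoints linearly; if unreached, use highest concentration. TGI: total growth inhibition.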

Experiments:
Test in all cases: growth of human tumour cells (NCI), 48 h
[1] = tested on: OVCAR-4 ovarian
[2] = tested on: MDA-MB-231 breast
[3] = tested on: LOX IMVI melanoma
[4] = tested on: SF-295 CNS
[5] = tested on: NCI/ADR-RES ovarian
[6] = tested on: COLO 205 colon
[7] = tested on: SK-MEL-2 melanoma
[8] = tested on: HOP-62 NSCLC
[9] = tested on: KM12 colon
[10] = tested on: M14 melanoma

SMILES | TGI [1] [µM] | TGI [2] [µM] | TGI [3] [µM] | TGI [4] [µM] | TGI [5] [µM] | TGI [6] [µM] | TGI [7] [µM] | TGI [8] [µM] | TGI [9] [µM] | TGI [10] [µM]
C=CCCC1(CC(Sc2ccccc2)P(=O)(c2ccccc2)c2ccccc2)OCCO1 (stereo not given) | > 10 | > 10 | > 10 | > 10 | > 10 | > 10 | > 10 | > 10 | > 10 | > 10
N#Cc1[nH]c(=O)n(-c2ccccc2)c1N | > 10 | > 10 | 1.58 | 3.72 | > 10 | > 10 | > 10 | > 10 | > 10 | > 10
O=C1NC(=S)NC(=O)C1C(c1ccc(O)cc1)C1C(=O)NC(=S)NC1=O | > 100 | > 100 | > 100 | > 100 | > 100 | > 100 | > 100 | > 100 | > 100 | > 100
O=[N+]([O-])c1ccc(S(=O)(=O)n2c3ccc(Br)cc3c3nc4ccccc4nc32)cc1 | > 100 | > 100 | > 100 | > 100 | > 100 | > 100 | > 100 | > 100 | > 100 | > 100
N#C/C(=C/NC(N)=S)C(N)=O | > 100 | > 100 | > 100 | > 100 | > 100 | > 100 | > 100 | > 100 | > 100 | > 100
CCCCCCCCCCCC(=O)OCC(C[As](=O)(O)O)OC(=O)CCCCCCCCCCC (stereo not given) | 33.3 | 16 | 18.3 | 26.7 | 44.5 | 25.4 | 12.1 | 78 | 21.6 | 4.48
COCc1nc2c(OC)c(-c3nc4nc(N5CCN(C)CC5)ccc4[nH]3)cc(OC)c2n1C | > 100 | 46.4 | 39.5 | 92.9 | > 100 | 21.5 | 41.9 | > 100 | 61.6 | 43.3
CN(C(=O)Cc1cccc(N=C=S)c1)[C@H]1CCCC[C@@H]1N1CCCC1 | 28.5 | 31.8 | 31.3 | > 100 | 79.8 | 25.2 | 34.4 | 33.2 | 32.1 | 41.1
O=C1CC(c2cccc([N+](=O)[O-])c2)C2(C(=O)NC(=O)NC2=O)C(c2cccc([N+](=O)[O-])c2)C1 (stereo not given) | > 100 | > 100 | > 100 | > 100 | > 100 | > 100 | > 100 | > 100 | > 100 | > 100
O=C(NC(Cc1ccccc1)(Cc1ccc(O)cn1)C(=O)O)c1ccccc1 (stereo not given) | > 100 | > 100 | > 100 | > 100 | > 100 | > 100 | > 100 | > 100 | > 100 | > 100
